From paper PMC9516332 (Frontiers in Oncology, 2022)
Where two headings read alike, the source gives them in different places.

Columns and labels:
Assay in all cases: Kinase panel profiling at 1 µmol/L (MSA or IMAP), percentage inhibition
Type in all cases: biochemical
[1] = target: panel of 255 wild-type kinases (Homo sapiens, UniProt P14616); details: read-out: %-inhibition at 1 µmol/L, IRR
[2] = target: T1, panel of 255 wild-type kinases (Homo sapiens, UniProt P36888); details: read-out: %-inhibition at 1 µmol/L, FLT3
T1 sequence (P36888 27-993): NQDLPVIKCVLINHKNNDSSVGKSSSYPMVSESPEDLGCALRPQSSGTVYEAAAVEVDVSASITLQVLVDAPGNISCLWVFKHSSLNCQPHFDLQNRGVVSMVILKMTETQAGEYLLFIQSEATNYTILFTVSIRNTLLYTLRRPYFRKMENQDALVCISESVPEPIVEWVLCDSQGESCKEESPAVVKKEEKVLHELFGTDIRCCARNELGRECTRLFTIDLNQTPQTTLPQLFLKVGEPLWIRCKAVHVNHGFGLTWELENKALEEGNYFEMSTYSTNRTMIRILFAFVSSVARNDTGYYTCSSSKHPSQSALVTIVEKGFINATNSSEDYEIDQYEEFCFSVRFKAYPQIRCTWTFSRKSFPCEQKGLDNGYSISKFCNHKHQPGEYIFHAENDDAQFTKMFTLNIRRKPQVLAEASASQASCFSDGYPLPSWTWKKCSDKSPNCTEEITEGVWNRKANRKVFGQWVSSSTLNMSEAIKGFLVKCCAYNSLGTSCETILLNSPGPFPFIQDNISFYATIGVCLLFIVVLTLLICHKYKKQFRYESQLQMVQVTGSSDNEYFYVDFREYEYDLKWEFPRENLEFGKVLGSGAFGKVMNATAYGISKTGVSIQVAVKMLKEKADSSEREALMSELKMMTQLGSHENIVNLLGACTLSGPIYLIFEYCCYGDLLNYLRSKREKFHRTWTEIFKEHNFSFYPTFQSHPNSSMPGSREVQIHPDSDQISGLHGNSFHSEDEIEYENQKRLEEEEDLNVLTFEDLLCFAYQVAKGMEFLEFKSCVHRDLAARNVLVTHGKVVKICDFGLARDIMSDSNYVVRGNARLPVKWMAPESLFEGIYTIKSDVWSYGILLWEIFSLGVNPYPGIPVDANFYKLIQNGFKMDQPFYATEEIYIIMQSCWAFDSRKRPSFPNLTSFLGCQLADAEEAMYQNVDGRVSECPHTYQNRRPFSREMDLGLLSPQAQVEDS

[3] = target: panel of 255 wild-type kinases (Homo sapiens, UniProt P48730); details: read-out: %-inhibition at 1 µmol/L, CK1δ
[4] = target: panel of 255 wild-type kinases (Homo sapiens, UniProt Q13131); details: read-out: %-inhibition AMPKα1/β1/γ1
[5] = target: panel of 255 wild-type kinases (Homo sapiens, UniProt Q13153); details: read-out: %-inhibition, PAK1
[6] = target: panel of 255 wild-type kinases (Homo sapiens, UniProt Q14012); details: read-out: %-inhibition CaMK1α
[7] = target: T2, panel of 255 wild-type kinases (Homo sapiens, UniProt Q8IWQ3); details: read-out: %-inhibition BRSK2
T2 sequence (Q8IWQ3 1-736): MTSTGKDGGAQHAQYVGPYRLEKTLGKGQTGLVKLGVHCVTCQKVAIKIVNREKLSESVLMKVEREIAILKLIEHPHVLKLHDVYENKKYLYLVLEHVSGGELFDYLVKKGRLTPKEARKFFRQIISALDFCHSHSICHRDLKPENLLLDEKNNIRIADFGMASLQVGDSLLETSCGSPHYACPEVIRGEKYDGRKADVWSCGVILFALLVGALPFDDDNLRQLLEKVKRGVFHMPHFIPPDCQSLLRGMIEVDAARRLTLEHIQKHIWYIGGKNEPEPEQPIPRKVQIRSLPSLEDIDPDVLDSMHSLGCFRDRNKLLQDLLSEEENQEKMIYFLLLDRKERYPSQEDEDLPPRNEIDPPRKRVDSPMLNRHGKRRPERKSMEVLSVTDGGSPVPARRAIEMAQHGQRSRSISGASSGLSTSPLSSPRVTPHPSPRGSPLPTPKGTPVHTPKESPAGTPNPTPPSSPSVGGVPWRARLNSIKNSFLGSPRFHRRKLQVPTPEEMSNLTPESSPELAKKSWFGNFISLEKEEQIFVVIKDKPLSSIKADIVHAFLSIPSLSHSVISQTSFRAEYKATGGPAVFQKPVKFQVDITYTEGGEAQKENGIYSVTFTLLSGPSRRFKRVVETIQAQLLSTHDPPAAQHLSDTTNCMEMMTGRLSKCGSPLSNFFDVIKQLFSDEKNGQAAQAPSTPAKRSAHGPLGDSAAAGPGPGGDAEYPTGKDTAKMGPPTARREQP

[8] = target: panel of 255 wild-type kinases (Homo sapiens, UniProt Q8IY84); details: read-out: %-inhibition, NIM1K
[9] = target: panel of 255 wild-type kinases (Homo sapiens, UniProt Q96SB4); details: read-out: %-inhibition at 1 µmol/L, SRPK1
[10] = kinase IRR, 1 µmol/L single concentration
[11] = kinase FLT3, 1 µmol/L single concentration
[12] = kinase CK1δ, 1 µmol/L single concentration
[13] = AMPKα1/β1/γ1 kinase assay, 1 µmol/L single concentration
[14] = PAK1, 1 µmol/L single concentration
[15] = CaMK1α kinase assay, 1 µmol/L single concentration
[16] = BRSK2 kinase assay, 1 µmol/L single concentration
[17] = NIM1K, 1 µmol/L single concentration
[18] = kinase SRPK1, 1 µmol/L single concentration

SMILES	inhibition at 1 µM [1, 10] [%]	inhibition at 1 µM [2, 11] [%]	inhibition at 1 µM [3, 12] [%]	inhibition at 1 µM [4, 13] [%]	inhibition at 1 µM [5, 14] [%]	inhibition at 1 µM [6, 15] [%]	inhibition at 1 µM [7, 16] [%]	inhibition at 1 µM [8, 17] [%]	inhibition at 1 µM [9, 18] [%]	inhibition at 1 µM [1] [%]	inhibition at 1 µM [2] [%]	inhibition at 1 µM [3] [%]	inhibition at 1 µM [4] [%]	inhibition at 1 µM [5] [%]	inhibition at 1 µM [6] [%]	inhibition at 1 µM [7] [%]	inhibition at 1 µM [8] [%]	inhibition at 1 µM [9] [%]
CCN1C(=O)N(c2c(F)c(OC)cc(OC)c2F)Cc2cnc3[nH]c(CN4CCOCC4)cc3c21 [pemigatinib]	8	8	-4.55	-6.52	-3.62	12	3.17	-1.5	-12									
Cn1cc(-c2cc3c(N4CCN(c5ncc([C@@](C)(N)c6ccc(F)cc6)cn5)CC4)ncnn3c2)cn1 [avapritinib]	2.37	100	11	9	0.845	-9	11	0.427	-12									
CNC(=O)c1ccc(-c2cnc3ncc(Cc4ccc5ncccc5c4)n3n2)cc1F [capmatinib]										4	50	-1.78	-4.64	4.66	-9	1	-2	-6
C[C@H](Nc1ncnc2nc[nH]c12)c1cc2cccc(Cl)c2c(=O)n1-c1ccccc1 [duvelisib]	7	10	-4.49	-4	-0.68	-5.33	11	-3.41	4									
